Laboratory results as given in patent publication US6734190B2, “Dihydrodipyrazolopyridinylbenzamide and -sulfonamide inhibitors of B7-1” (Wyeth, priority 2002, dated 2004).

Experiments:
B7-1/CD28 = target: T1, B7-1/CD28 (Homo sapiens, UniProt P33681); experiment: CD28/B7-1 ELISA (B7-1/CD28 binding inhibition); details: CD28-Fc coated wells; B7-1-Fc-biotin/streptavidin-alkaline phosphatase detection complex; 1% DMSO
T1 sequence (P33681 35-242 limits assumed): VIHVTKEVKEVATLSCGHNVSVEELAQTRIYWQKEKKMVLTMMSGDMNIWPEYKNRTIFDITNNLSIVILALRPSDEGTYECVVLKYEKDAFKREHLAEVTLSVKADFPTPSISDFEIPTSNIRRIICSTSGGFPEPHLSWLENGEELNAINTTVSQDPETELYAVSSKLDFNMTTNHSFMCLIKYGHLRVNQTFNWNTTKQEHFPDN
Method: Evaluation of B7-1/CD28 Binding Inhibition for Test Compounds
Wells are coated with 300 ng CD28-Fc in carbonate buffer (pH 9.4) overnight at 4° C., blocked with 1% bovine serum albumin in tris-buffered saline (TBS) for 1 h at 22° C. and washed 3 times in TBS prior to assay. The detection complex is formed as follows: B7-1-Fc-biotin, prepared using NHS-LC-biotin (Pierce #21335) according to the manufacturers instructions (4.1 moles biotinimole Fc), is added at 0.8 ug/ml to streptavidin-alkaline phosphatase (Caltag Sa1008) at 1:1000 in TBS. A solution of test compound in dimethylsulfoxide (1% final) are added to this complex and incubated 30 min at 22° C. Detection complex (+/−inhibitors) is then added to the CD28 coated wells for 25 min at 22° C., washed 5 times with TBS, developed with the colorimetric substrate pNPP (Pierce #34045) in diethanolamine/MgCl2 buffer (pH 9.5) and read at 405 nm. The inhibition constant (IC50) is calculated by subtracting background binding and comparing to uninhibited (DMSO alone) controls. The inhibition constant represents the concentration of test compound required to achieve 50% inhibition.

Row | Compound | IC50 (B7-1/CD28) [nM] | melting point
1 | COCc1cccc(NC(=O)c2ccc(-n3[nH]c4c(c(-c5cccc(C(F)(F)F)c5)nc5c4cnn5C)c3=O)cc2)c1 [Example 29] | 110 | 210 °C (dec.)
2 | Cn1ncc2c3[nH]n(-c4ccc(C(=O)N5CCOCC5)c(F)c4)c(=O)c3c(-c3cccc(C(F)(F)F)c3)nc21 [Example 30] | 310 | 176 to 179 °C
3 | Cn1ncc2c3[nH]n(-c4ccc(C(=O)NCc5ccccc5)cc4)c(=O)c3c(-c3cccc(C(F)(F)F)c3)nc21 [Example 32] | 79 | 189 to 192 °C
4 | Cn1ncc2c3[nH]n(-c4ccc(C(=O)N5CCOCC5)cc4)c(=O)c3c(-c3cccc(C(F)(F)F)c3)nc21 [Example 33, 6-methyl-2-[4-(4-morpholinylcarbonyl)phenyl]-4-[3-(trifluoromethyl)phenyl]-1,6-dihydrodipyrazolo[3,4-b:3,4-d]pyridin-3(2H)-one] | 13 | 287 to 290 °C
5 | Cn1ncc2c3[nH]n(-c4ccc(C(=O)Nc5ccc(CCO)cc5)cc4)c(=O)c3c(-c3cccc(C(F)(F)F)c3)nc21 [Example 34] | 23 | 186 to 189 °C
6 | Cn1ncc2c3[nH]n(-c4ccc(C(=O)N5CCCC(CO)C5)cc4)c(=O)c3c(-c3cccc(C(F)(F)F)c3)nc21 (centres unmarked) [Example 36] | 180 | 189.8 to 192.7 °C
7 | Cn1ncc2c3[nH]n(-c4ccc(C(=O)NCCCCO)cc4)c(=O)c3c(-c3cccc(C(F)(F)F)c3)nc21 [Example 37] | 88 | 280 °C (dec.)
8 | CC(=O)c1cccc(NC(=O)c2ccc(-n3[nH]c4c(c(-c5cccc(C(F)(F)F)c5)nc5c4cnn5C)c3=O)cc2)c1 [Example 38] | 44 | 300 °C (dec.)
9 | Cn1ncc2c3[nH]n(-c4ccc(C(=O)NCCCCCN)cc4)c(=O)c3c(-c3cccc(C(F)(F)F)c3)nc21 [Example 39] | 140 | 234.5 to 236 °C
10 | COC(=O)c1cccc(NC(=O)c2ccc(-n3[nH]c4c(c(-c5cccc(C(F)(F)F)c5)nc5c4cnn5C)c3=O)cc2)c1 [Example 42] | 94 | 220 to 222 °C
11 | Cn1ncc2c3[nH]n(-c4ccc(C(=O)Nc5cccc6c5CCCC6O)cc4)c(=O)c3c(-c3cccc(C(F)(F)F)c3)nc21 (centres unmarked) [Example 43] | 300 | 298 °C (dec.)
12 | Cn1ncc2c3[nH]n(-c4cccc(C(=O)N5CCC[C@H]5C(=O)O)c4)c(=O)c3c(-c3cccc(C(F)(F)F)c3)nc21 [Example 69] | 100 | 168 to 171 °C
13 | Cn1ncc2c3[nH]n(-c4ccc(C(=O)Nc5ccc(O)c(O)c5)cc4)c(=O)c3c(-c3cccc(C(F)(F)F)c3)nc21 [Example 98] | 36 | 206 to 209 °C
